# Test results: ChEMBL document CHEMBL4411327, “Discovery of pyrimidine nucleoside dual prodrugs and pyrazine nucleosides as novel anti-HCV agents” (Bioorg Med Chem, 2019)
# What was measured:
# [1] = Cytotoxicity against human HuH7 cells infected with HCV genotype 1b replicon after 72 hrs by CellTiter-Fluor reagent based fluorescence assay; type: cell-based, Huh-7
# Hepatitis C virus [2] = test: Antiviral activity against HCV genotype 1b replicon infected in human HuH7 cells at 100 uM after 72 hrs by bright-glo luciferase reporter gene assay relative to control; type: functional, Hepacivirus hominis; settings: subtype 1b, Huh-7, 72 h
# Hepatitis C virus [3] = test: Antiviral activity against HCV genotype 1b replicon infected in human HuH7 cells after 72 hrs by bright-glo luciferase reporter gene assay; type: functional, organism-based, Hepacivirus hominis; settings: subtype 1b, Huh-7, 72 h
# Hepatitis C virus [4] = test: Antiviral activity against HCV genotype 1b replicon infected in human HuH7 cells at 10 uM after 72 hrs by bright-glo luciferase reporter gene assay relative to control; type: functional, Hepacivirus hominis; settings: subtype 1b, Huh-7, 72 h
# Hepatitis C virus [5] = test: Antiviral activity against HCV genotype 1b replicon infected in human HuH7 cells at 20 uM after 72 hrs by bright-glo luciferase reporter gene assay relative to control; type: functional, Hepacivirus hominis; settings: subtype 1b, Huh-7, 72 h
# [6] = Half life in human plasma at 40 uM by LC-MS/MS analysis; type: ADME, cell-free
# [7] = Stability in human liver microsomes assessed as parent compound remaining at 0.1 uM preincubated with MgCl2 for 10 mins followed by NADPH addition measured after 60 mins by LC-MS/MS analysis; type: ADME, Microsome; settings: read-out: Stability
# [8] = Stability in human liver microsomes assessed as parent compound remaining at 0.1 uM preincubated with MgCl2 for 10 mins followed by NADPH addition measured after 17 mins by LC-MS/MS analysis; type: ADME, Microsome
# [9] = Stability in human plasma assessed as parent compound remaining at 40 uM measured after 1 hr by LC-MS/MS analysis; type: ADME, cell-free; settings: read-out: Stability
# [10] = Stability in human plasma assessed as parent compound remaining at 40 uM measured after 0.5 hrs by LC-MS/MS analysis; type: ADME, cell-free; settings: read-out: Stability
# [11] = Stability in human liver microsomes assessed as parent compound remaining at 0.1 uM preincubated with MgCl2 for 10 mins followed by NADPH addition measured after 30 mins by LC-MS/MS analysis; type: ADME, Microsome
# [12] = Half life in human liver microsomes at 0.1 uM preincubated with MgCl2 for 10 mins followed by NADPH addition by LC-MS/MS analysis; type: ADME, Microsome
# [13] = Stability in human plasma assessed as parent compound remaining at 40 uM measured after 5 hrs by LC-MS/MS analysis; type: ADME, cell-free; settings: read-out: Stability
# [14] = Stability in human plasma assessed as parent compound remaining at 40 uM measured immediately by LC-MS/MS analysis; type: ADME, cell-free; settings: read-out: Stability
# [15] = Metabolic bioavailability in human liver microsomes at 0.1 uM preincubated with MgCl2 for 10 mins followed by NADPH addition measured within 60 mins by LC-MS/MS analysis; type: ADME, Microsome
# [16] = Stability in human plasma assessed as parent compound remaining at 40 uM measured after 2 hrs by LC-MS/MS analysis; type: ADME, cell-free; settings: read-out: Stability
# [17] = Stability in human liver microsomes assessed as parent compound remaining at 0.1 uM preincubated with MgCl2 for 10 mins followed by NADPH addition measured after 7 mins by LC-MS/MS analysis; type: ADME, Microsome; settings: read-out: Stability
# [18] = Stability in human liver microsomes assessed as parent compound remaining at 0.1 uM preincubated with MgCl2 for 10 mins followed by NADPH addition measured immediately by LC-MS/MS analysis; type: ADME, Microsome; settings: read-out: Stability
# [19] = liver microsomes, read-out: Stability
SMILES,CC50 at 72 h [1],EC50 (Hepatitis C virus [3]),other results
C[C@@]1(O)[C@H](O)[C@@H](CO)O[C@H]1n1ccnc(N)c1=O,> 100 µM,,inhibition at 100 µM (Hepatitis C virus [2]): 22.3%
CC(C)OC(=O)[C@H](C)N[P@](=O)(OC[C@H]1O[C@@H](n2ccc(=O)n(C(C)OC(=O)OC3CCCCC3)c2=O)[C@](C)(F)[C@@H]1O)Oc1ccccc1 (stereo not given in full),> 10 µM,0.5 µM,inhibition at 10 µM (Hepatitis C virus [4]): 99.9%
CC(C)OC(=O)[C@H](C)N[P@](=O)(OC[C@H]1O[C@@H](n2ccnc(N)c2=O)[C@](C)(O)[C@@H]1O)Oc1ccccc1,59.6 µM,24.4 µM,inhibition at 100 µM (Hepatitis C virus [2]): 99.8%
C[C@@]1(O)[C@H](O)[C@@H](CO)O[C@H]1n1cc(Br)ncc1=O,> 100 µM,> 100 µM,
CCNc1nccn([C@@H]2O[C@H](CO)[C@@H](O)[C@@]2(C)O)c1=O,> 100 µM,> 100 µM,
CC(C)OC(=O)[C@H](C)N[P@](=O)(OC[C@H]1O[C@@H](n2ccc(Oc3ccccc3)nc2=O)[C@](C)(F)[C@@H]1O)Oc1ccccc1,> 20 µM,> 20 µM,inhibition at 20 µM (Hepatitis C virus [5]): 0%
C[C@]1(CO)O[C@@H](n2ccnc(N)c2=O)[C@H](O)[C@@H]1O,> 100 µM,> 100 µM,
CC(C)OC(=O)[C@H](C)N[P@](=O)(OC[C@H]1O[C@@H](n2cc(C(N)=O)ncc2=O)[C@](C)(O)[C@@H]1O)Oc1ccccc1,> 100 µM,> 100 µM,
CCNc1nccn([C@@H]2O[C@](C)(CO)[C@@H](O)[C@H]2O)c1=O,> 100 µM,> 100 µM,
CCOC(=O)OCn1c(=O)ccn([C@@H]2O[C@H](CO[P@@](=O)(N[C@@H](C)C(=O)OC(C)C)Oc3ccccc3)[C@@H](O)[C@@]2(C)F)c1=O,> 10 µM,0.21 µM,inhibition at 10 µM (Hepatitis C virus [4]): 99.3%
C=CCNc1ccn([C@@H]2O[C@H](CO[P@@](=O)(N[C@@H](C)C(=O)OC(C)C)Oc3ccccc3)[C@@H](O)[C@@]2(C)F)c(=O)n1,> 20 µM,> 20 µM,inhibition at 20 µM (Hepatitis C virus [5]): 0%
C=CCOc1ccn([C@@H]2O[C@H](CO[P@@](=O)(N[C@@H](C)C(=O)OC(C)C)Oc3ccccc3)[C@@H](O)[C@@]2(C)F)c(=O)n1,> 20 µM,> 20 µM,inhibition at 20 µM (Hepatitis C virus [5]): 0%
C[C@@]1(O)[C@H](O)[C@@H](CO)O[C@H]1n1cc(C(N)=O)ncc1=O,> 100 µM,> 100 µM,
CC(C)OC(=O)OC(C)n1c(=O)ccn([C@@H]2O[C@H](CO[P@@](=O)(N[C@@H](C)C(=O)OC(C)C)Oc3ccccc3)[C@@H](O)[C@@]2(C)F)c1=O (stereo not given in full),> 10 µM,0.22 µM,"half-life at 40 µM [6]: 984 min; remaining at 1 h, 0.1 µM [7]: 0%; Stability ([8]; microsomes, 17 min, 0.1 µM): 12.8%; remaining at 1 h, 40 µM [9]: 90%; remaining at 0.5 h, 40 µM [10]: 92.8%; Stability ([11]; microsomes, 0.5 h, 0.1 µM): 2.1%; t1/2 ([12]; microsomes, 0.1 µM): 13.5 min; remaining at 5 h, 40 µM [13]: 78.9%; remaining at 0 h, 40 µM [14]: 100%; Fh at 1 h, 0.1 µM [15]: 11.2%; remaining at 2 h, 40 µM [16]: 85.3%; remaining at 7 min, 0.1 µM [17]: 51.2%; remaining at 0 min, 0.1 µM [18]: 100%; inhibition at 10 µM (Hepatitis C virus [4]): 99.8%"
C[C@]1(CO)O[C@@H](n2ccnc(C(N)=O)c2=O)[C@H](O)[C@@H]1O,> 100 µM,> 100 µM,
C[C@@]1(O)[C@H](O)[C@@H](CO)O[C@H]1n1cc(Cl)nc(C(N)=O)c1=O,> 100 µM,7.3 µM,

SMILES,CC50 at 72 h [1],EC50 (Hepatitis C virus [3]),other results
CCOC(=O)n1c(=O)ccn([C@@H]2O[C@H](CO[P@@](=O)(N[C@@H](C)C(=O)OC(C)C)Oc3ccccc3)[C@@H](O)[C@@]2(C)F)c1=O,> 10 µM,0.65 µM,inhibition at 10 µM (Hepatitis C virus [4]): 100%
CCNc1nccn([C@@H]2O[C@](C)(CO[P@@](=O)(N[C@@H](C)C(=O)OC(C)C)Oc3ccccc3)[C@@H](O)[C@H]2O)c1=O,> 100 µM,> 100 µM,
CC(C)OC(=O)[C@@H](C)N[P@@](=O)(OC[C@H]1O[C@@H](n2ccnc(N)c2=O)[C@](C)(O)[C@@H]1O)Oc1ccccc1,> 100 µM,> 100 µM,
CCCCCOC(=O)n1c(=O)ccn([C@@H]2O[C@H](CO[P@@](=O)(N[C@@H](C)C(=O)OC(C)C)Oc3ccccc3)[C@@H](O)[C@@]2(C)F)c1=O,> 10 µM,0.7 µM,inhibition at 10 µM (Hepatitis C virus [4]): 99.9%
COc1ccn([C@@H]2O[C@H](CO[P@@](=O)(N[C@@H](C)C(=O)OC(C)C)Oc3ccccc3)[C@@H](O)[C@@]2(C)F)c(=O)n1,> 20 µM,> 20 µM,inhibition at 20 µM (Hepatitis C virus [5]): 0%
CCNc1nccn([C@@H]2O[C@H](CO[P@@](=O)(N[C@@H](C)C(=O)OC(C)C)Oc3ccccc3)[C@@H](O)[C@@]2(C)O)c1=O,> 100 µM,> 100 µM,
CC(C)OC(=O)[C@H](C)N[P@](=O)(OC[C@H]1O[C@@H](n2ccc(=O)n(C(=O)OCc3ccccc3)c2=O)[C@](C)(F)[C@@H]1O)Oc1ccccc1,> 10 µM,0.5 µM,inhibition at 10 µM (Hepatitis C virus [4]): 99.3%
CCOC(=O)OC(C)n1c(=O)ccn([C@@H]2O[C@H](CO[P@@](=O)(N[C@@H](C)C(=O)OC(C)C)Oc3ccccc3)[C@@H](O)[C@@]2(C)F)c1=O (stereo not given in full),> 10 µM,0.22 µM,inhibition at 10 µM (Hepatitis C virus [4]): 99.6%
CC(C)OC(=O)[C@H](C)N[P@](=O)(OC[C@@]1(C)O[C@@H](n2ccnc(N)c2=O)[C@H](O)[C@@H]1O)Oc1ccccc1,> 100 µM,19.5 µM,inhibition at 100 µM (Hepatitis C virus [2]): 85.1%
CC(C)OC(=O)[C@H](C)N[P@](=O)(OC[C@H]1O[C@@H](n2ccc(OC3CC3)nc2=O)[C@](C)(F)[C@@H]1O)Oc1ccccc1,> 20 µM,> 20 µM,inhibition at 20 µM (Hepatitis C virus [5]): 0%
C#CCOc1ccn([C@@H]2O[C@H](CO[P@@](=O)(N[C@@H](C)C(=O)OC(C)C)Oc3ccccc3)[C@@H](O)[C@@]2(C)F)c(=O)n1,> 20 µM,12.2 µM,inhibition at 20 µM (Hepatitis C virus [5]): 46.9%
CC(C)=CCOc1ccn([C@@H]2O[C@H](CO[P@@](=O)(N[C@@H](C)C(=O)OC(C)C)Oc3ccccc3)[C@@H](O)[C@@]2(C)F)c(=O)n1,> 20 µM,0.2 µM,inhibition at 20 µM (Hepatitis C virus [5]): 99.9%
CC(C)COC(=O)n1c(=O)ccn([C@@H]2O[C@H](CO[P@@](=O)(N[C@@H](C)C(=O)OC(C)C)Oc3ccccc3)[C@@H](O)[C@@]2(C)F)c1=O,> 10 µM,0.4 µM,"half-life at 40 µM [6]: 18 min; remaining at 1 h, 0.1 µM [7]: 0%; remaining at 17 min, 0.1 µM [8, 19]: 0%; remaining at 1 h, 40 µM [9]: 61%; remaining at 0.5 h, 40 µM [10]: 87.3%; remaining at 0.5 h, 0.1 µM [11, 19]: 0%; half-life at 0.1 µM ([12]; liver microsomes): 1.44 min; remaining at 5 h, 40 µM [13]: 0%; remaining at 0 h, 40 µM [14]: 100%; Fh at 1 h, 0.1 µM [15]: 1.33%; remaining at 2 h, 40 µM [16]: 17.2%; remaining at 7 min, 0.1 µM [17]: 3.5%; remaining at 0 min, 0.1 µM [18]: 100%; inhibition at 10 µM (Hepatitis C virus [4]): 99.9%"
CC(C)OC(=O)[C@H](C)N[P@](=O)(OC[C@H]1O[C@@H](n2ccc(OCc3ccccc3)nc2=O)[C@](C)(F)[C@@H]1O)Oc1ccccc1,> 20 µM,> 20 µM,inhibition at 20 µM (Hepatitis C virus [5]): 0%
CC=CCOc1ccn([C@@H]2O[C@H](CO[P@@](=O)(N[C@@H](C)C(=O)OC(C)C)Oc3ccccc3)[C@@H](O)[C@@]2(C)F)c(=O)n1 (mixture of isomers),> 100 µM,30.3 µM,inhibition at 100 µM (Hepatitis C virus [2]): 66.3%
CC(C)OC(=O)[C@H](C)N[P@](=O)(OC[C@H]1O[C@@H](n2ccc(=O)[nH]c2=O)[C@](C)(F)[C@@H]1O)Oc1ccccc1 [SOFOSBUVIR],> 20 µM,0.18 µM,inhibition at 20 µM (Hepatitis C virus [5]): 99.9%
